Assay results as given in US20240156764A1, “INHIBITION OF URACIL DNA GLYCOSYLASE IN THE OPEN CONFORMATION” (CASE WESTERN RESERVE UNIVERSITY, priority 2022, published 2024).
Where “and” joins values, the source holds several entries; their conditions need not be identical. Equal values may be shown once. Read-outs that look alike come from different tables or passages of the source.

Columns and labels:
human UDG [1] = target: T1, human UDG (Homo sapiens, UniProt P13051); test: UDG protein thermal shift with Sypro orange dye; assay type: binding; details: 100 μM ATA
Protocol: The data for thermophoresis was recorded at 20° C. using the blue LED at 20% and IR-Laser at 40%. The isotherm derived from the raw data and fitted according to the law of mass action. […] Then 2 μL of 10× Sypro dye and 2 μL of ddH20 (Applied biosystems cat #4461141) were added. Monitoring of fluorescence took place for 2 hr (Bioraid CFX96, Hex filter, 25-97° C., 1.6° C./2 min). Negative (−) derivative RFU raw data and plots from the machine were obtained and analyzed. […] Melting temperature (Tm) value was taken directly from the midpoint on the −dRFU/dt vs. temperature graph. Each point on the graph represents an average of three data sets. Y error bars represent the standard deviation.
FIGS. 10(A-D) illustrate UDG thermal shift. A: Uracil DNA hairpin stabilizes UDG protein. […] Melting temperature (Tm) values were taken directly from lowest peak point on the negative dRFU/dt over temperature plots. B: (with uracil DNA): Parallel set of wells on the same plate included uracil-DNA harpin (final […]). Each plate was incubated 60 min at room temperature before the monitoring of fluorescence took place about 2 hr (Biorad CFX96, Hex filter, 25° C.-97C, 1.6° C./2 min). […] Each plate was incubated 60 min at room temperature before the monitoring of fluorescence took place about 2 hr (Biorad CFX96, Hex filter, 25° C.-97° C., increment of 1.6° C./2 min). […]
Target sequence in this assay (P13051 94-313 limits assumed): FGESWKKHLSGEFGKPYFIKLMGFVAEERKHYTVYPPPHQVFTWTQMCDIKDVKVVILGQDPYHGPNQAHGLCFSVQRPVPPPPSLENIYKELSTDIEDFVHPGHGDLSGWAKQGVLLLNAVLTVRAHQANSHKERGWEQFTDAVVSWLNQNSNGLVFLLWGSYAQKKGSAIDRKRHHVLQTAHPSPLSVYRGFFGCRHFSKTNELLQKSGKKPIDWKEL

human OGG1 protein = target: T2, human OGG1 protein (Homo sapiens, UniProt O15527); test: Gel-based DNA cleavage assay with a single oxoG:C basepair; assay type: biochemical
T2 construct: purchased NEBiolabs (New England Biolabs)
Protocol: 20% polyacrylamide nucleic acid urea gel electrophoresis was used to resolve the DNA bands at room temperature, 200 v for 50 min. Analysis and quantification of DNA cleavage were done as follows. A background subtraction step was included using the 23mer from the DNA only lane. […] B: Points on the plot were averaged from four different gels. The IC50 value was generated using Prism software version 8.4.3, non-linear fit, [inhibitor] vs. response (three parameters, R2=0.99) averaging points from four different gels. Y error bars represent the standard deviation from the mean. […] A single oxo-guanine: cytosine base pair DNA with a Cy3 fluorescent tag on the 3′ end was used (10 nM). D: The IC50 value was generated using Prism software version 8.4.3, non-linear fit, [inhibitor] vs. response (three parameters, R2=0.98) averaging points from three different gels.
Following pre-incubation occurred for 20 min at 37° C., 2 μL of U:A DNA (500 nM stock) was added to initiate the reaction, total reaction volume of 50 μL/well. Each plate was incubated for 120 min at 37° C. […] Gel data were analyzed using ImageJ software. […] Percent cleavage was calculated by using fluorescence intensity of the cleaved 23-mer DNA strand divided by the sum of the fluorescence bands (23mer+40mer DNA strands)*100. […]

[2] = test system: A:8oxoG (MPG, MUTYH) repair in MCF-7 cells; test: Host-cell reactivation assay, A:8oxoG reporter, MCF-7; assay type: cell-based, human; details: ATA 2.5 μM
human UDG [3] = target: T1, human UDG; test: Gel-based DNA cleavage assay with a single U:A basepair; assay type: biochemical; design: 6xHis; purchased XTAL Biostructures; host or cells: Sf9 insect cells
Protocol: 20% polyacrylamide nucleic acid urea gel electrophoresis was used to resolve the DNA bands at room temperature, 200 v for 50 min. Analysis and quantification of DNA cleavage were done as follows. A background subtraction step was included using the 23mer from the DNA only lane. […] A single oxo-guanine: cytosine base pair DNA with a Cy3 fluorescent tag on the 3′ end was used (10 nM).
Following pre-incubation occurred for 20 min at 37° C., 2 μL of U:A DNA (500 nM stock) was added to initiate the reaction, total reaction volume of 50 μL/well. Each plate was incubated for 120 min at 37° C. Then, each 96 well plate was sealed and heated at a constant temperature of 95° C. for 55 min using the CFX96 real time system thermocycler. After the heating process, 5 μL of a bromophenol blue denaturing loading dye (20milligrams of bromophenol blue, 9.7 ml of formamide plus 300 μL of 10M NaOH) was added to each reaction well. […] TBE buffer was prepared by dissolving 54 grams of tris base, 28 grams of boric acid, and 4.5 grams of EDTA in 1.0 liter of distilled H2O. Gels were processed at 200V for 60 min in the dark. Gels were imaged based on the fluorescent tags using Typhoon Trio+Variable Mode Imager (Amersham Biosciences) with excitation and emission wavelengths set to 532 nm and 585 nm respectively, photomultiplier tube voltage (PMT) was set to 400V, and pixel size resolution set to 100 μm. Gel data were analyzed using ImageJ software. DNA bands were corrected using a background subtraction step. Percent cleavage was calculated by using fluorescence intensity of the cleaved 23-mer DNA strand divided by the sum of the fluorescence bands (23mer+40mer DNA strands)*100. Relative percent cleavage was generated by using the untreated DMSO condition divided by each treated drug dose*100.
Target sequence in this assay (P13051 1-304 isoform P13051-2): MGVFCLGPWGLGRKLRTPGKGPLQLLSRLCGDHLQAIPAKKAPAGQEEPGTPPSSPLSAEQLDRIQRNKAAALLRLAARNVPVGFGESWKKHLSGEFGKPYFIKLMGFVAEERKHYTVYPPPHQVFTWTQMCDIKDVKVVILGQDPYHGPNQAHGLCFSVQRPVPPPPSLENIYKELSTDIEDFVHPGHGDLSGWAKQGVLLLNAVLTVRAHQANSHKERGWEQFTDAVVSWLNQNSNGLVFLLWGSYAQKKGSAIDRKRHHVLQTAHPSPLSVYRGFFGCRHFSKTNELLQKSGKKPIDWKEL

T2 sequence (O15527 whole entry): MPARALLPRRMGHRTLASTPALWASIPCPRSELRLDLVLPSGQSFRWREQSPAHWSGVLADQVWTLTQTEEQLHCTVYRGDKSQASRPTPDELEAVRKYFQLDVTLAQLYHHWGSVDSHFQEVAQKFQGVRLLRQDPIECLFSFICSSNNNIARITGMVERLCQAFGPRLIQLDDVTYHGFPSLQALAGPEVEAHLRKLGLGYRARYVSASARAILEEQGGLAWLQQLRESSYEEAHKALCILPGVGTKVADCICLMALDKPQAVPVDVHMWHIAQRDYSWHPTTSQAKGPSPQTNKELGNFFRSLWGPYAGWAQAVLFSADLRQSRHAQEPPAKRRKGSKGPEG

O=C(O)C1=CC(=C(c2ccc(O)c(C(=O)O)c2)c2ccc(O)c(C(=O)O)c2)C=CC1=O [ATA, aurintricarboxylic acid]
average maximum Tm change for UDG (human UDG [1]; absence of uracil containing DNA): ~3.0 °C
change of Tm of UDG protein (human UDG [1]; with 1.0 mM uracil DNA hairpin): did not further change the Tm
inhibitory effect on purified human OGG1 (human OGG1 protein; OGG1 10 nM, compared with UDG): lesser inhibitory effect
IC50 (human OGG1 protein; dsDNA with single 8oxoG:C bp, gel-based): 4500 nM
inhibition of repair of A:8oxoG basepair [2]: not inhibiting
UDG-mediated DNA cutting activity (human UDG [3]; ATA 0.46-12.5 μM, UDG 500 pM, DNA 20 nM): diminishes UDG-mediated DNA cutting activity in a dose-dependent manner
IC50 (human UDG [3]; dsDNA oligo with single U:A base pair, gel-based, read-out: average IC50 towards UDG): 700 nM and ~700 nM
IC50 (human UDG [3]; estimated, read-out: IC50, DNA cutting): 700 nM
